How the values were obtained:
[1] = tested on: RB-induced cerebral infarcts in the mouse cortex; assay: RB-induced photothrombotic cerebral infarct size, small animal imaging with PE-Cy5.5 anti-CD40; format: in vivo
Procedure: These set of experiments utilizes small animal imaging studies to non-invasively study the impact of G-protein stimulated IP3-gated Ca^2+ release on astrocyte neuroprotection during the aging process. In brief, focal cerebral infarcts are induced using photothrombosis as described in EXAMPLE 8. However, irradiation of the brain with green light is carried out through the cranium with a 10× objective. […] We observe the size of the lesion in subsequent days by taking advantage of an inflammatory response at the lesion, which we label with a fluorescently conjugated antibody to CD40 (PE-Cy5.5-anti-mouse-CD40). […] It has also been reported that the PE-Cy5.5 CD40 antibody localized to activated endothelium at the brain lesion and to blood derived cells of the mononuclear lineage. We have successfully used this approach to image RB-induced brain inflammation in mice with high sensitivity and specificity. […] To carry out these experiments, 3 mice were imaged. On the day of the initial photothrombosis, one mouse was injected with Rose Bengal, one with Rose Bengal and 2-MeSADP and the third mouse was injected only with saline. […] For one set of mice, we re-imaged the mice at day 17 post occlusion and found CD40 labeling undetectable in the 2-MeSADP injected mouse. […] Finally, in one mouse, we also injected a fluorescent dye (IR-820) on day 3 that is a strong indicator of blood brain barrier dysfunction. Accumulation of this dye at the site of a lesion is consistent with a permeant (i.e., compromised) blood brain barrier. As noted above small animal imaging has been successfully employed to progressively follow and measure the size of Rose Bengal (RB)-induced brain infarcts in live mice for over 2 weeks.

astrocytes = assay: MCB (reduced GSH) fluorescence of cortical astrocytes after RB-induced clot/ischemia; format: in vivo, mouse; conditions: 340 minutes after the initial clot; tail vein injection with RB
Procedure: In another series of experiments, a transgenic mouse expressing green fluorescent protein (GFP) in astrocytes was prepared for imaging. In this mouse, the cortical cells were labeled with monochlorobimane (MCB), a fluorescent indicator of reduced GSH. After obtaining an image of astrocytes (GFP) and MCB fluorescence, the mouse was tail vein injected with Rose Bengal (RB), FITC-dextran and the P2Y-R agonist 2-MeSADP. A clot was induced with 543 nm irradiation in a region of the brain. Breakdown of the blood brain barrier in the region near this clot permitted secretion of 2-MeSADP in the nearby astrocytes. MCB fluorescence was maintained for over an hour in all of the cells in the field of view. […] The persistence of GSH in this area indicates an enhanced region of protection against oxidative stress caused by ischemia. Lineplots of MCB fluorescence of the astrocytes is depicted in FIG. 7. Cells a1-a3 are within the protected zone and cells a4-a6 are outside this area.

CSc1nc(N)c2ncn([C@@H]3O[C@H](COP(=O)(O)OP(=O)(O)O)[C@@H](O)[C@H]3O)c2n1 [2-MeSADP]
size of the cerebral infarct ([1]; 2-MeSADP introduced 24 hours later): reduced | size of the cerebral infarct ([1]; 2-MeSADP present during the initial photothrombosis (day 0)): reduced | size of the lesion ([1]; day 3 after cerebral infarction, co-injected with Rose Bengal, versus Rose Bengal or saline alone): significantly smaller | CD40 labeling ([1]; day 17 post occlusion): undetectable | MCB fluorescence (GSH) of astrocytes near the initial clot zone (astrocytes): essentially maintained

Reference: patent publication US8618074B2, “GPCR enhanced neuroprotection to treat brain injury” (Board of Regents of the University of Texas System, priority 2007, dated 2013)
